Assay results from patent publication US10770169B2, “Method of providing a treatment to a subject based on a dynamic pathway map” (THE REGENTS OF THE UNIVERSITY OF CALIFORNIA, priority 2010, dated 2020).
Like-named read-outs stand apart in the source and are kept apart here.

Test system: panel of 55 breast cancer cell lines
Assay: Cell growth inhibition assay (Cell Titer Glo, 72 h, 9 doses; GI50, TGI, LC50)
Assay type: cell-based, human

`NS(=O)(=O)c1ccc(Nc2nc(OCC3CCCCC3)c3[nH]cnc3n2)cc1` [NU6102] showed a GI50 (AU565 cell line, censored GI50 values, value is the negative log10 of mol/L) of 4.64, a GI50 (BT474 cell line, censored GI50 values, value is the negative log10 of mol/L) of 4.56 and a GI50 (CAMA1 cell line, censored GI50 values, value is the negative log10 of mol/L) of 4.91. The GI50 (HCC1143 cell line, censored GI50 values, value is the negative log10 of mol/L) was 4.87, the GI50 (HCC1187 cell line, censored GI50 values, value is the negative log10 of mol/L) was 5.11 and the GI50 (HCC1395 cell line, censored GI50 values, value is the negative log10 of mol/L) was 5.24. For the same compound, the GI50 (HCC1419 cell line, censored GI50 values, value is the negative log10 of mol/L) was 4.54, the GI50 (HCC1428 cell line, censored GI50 values, value is the negative log10 of mol/L) was 4.87 and the GI50 (HCC1500 cell line, censored GI50 values, value is the negative log10 of mol/L) was 4.78. The GI50 (HCC1806 cell line, censored GI50 values, value is the negative log10 of mol/L) was 4.64, the GI50 (cell line AU565, value is the negative log10 of mol/L) was 4.64 and the GI50 (cell line BT20, value is the negative log10 of mol/L) was 4.23. For the same compound, the GI50 (cell line BT474, value is the negative log10 of mol/L) was 4.56, the GI50 (cell line BT483, value is the negative log10 of mol/L) was 4.18 and the GI50 (cell line CAMA1, value is the negative log10 of mol/L) was 4.91. It also gave a GI50 (cell line HCC38, value is the negative log10 of mol/L) of 5.03, a GI50 (cell line HCC70, value is the negative log10 of mol/L) of 4.69 and a GI50 (cell line HCC1143, value is the negative log10 of mol/L) of 4.87. It also gave a GI50 (cell line HCC1187, value is the negative log10 of mol/L) of 5.11, a GI50 (cell line HCC1395, value is the negative log10 of mol/L) of 5.24 and a GI50 (cell line HCC1419, value is the negative log10 of mol/L) of 4.54. It also gave a GI50 (cell line HCC1428, value is the negative log10 of mol/L) of 4.87, a GI50 (cell line HCC1500, value is the negative log10 of mol/L) of 4.78 and a GI50 (cell line HCC1806, value is the negative log10 of mol/L) of 4.64. For the same compound, the GI50 (cell line HCC1937, value is the negative log10 of mol/L) was 4.27, the GI50 (cell line HCC1954, value is the negative log10 of mol/L) was 4.34 and the GI50 (cell line HCC2185, value is the negative log10 of mol/L) was 4.85. It also gave a GI50 (cell line HCC3153, value is the negative log10 of mol/L) of 4.81, a GI50 (cell line LY2, value is the negative log10 of mol/L) of 4.32 and a GI50 (cell line MCF7, value is the negative log10 of mol/L) of 4.39. The GI50 (cell line MDAMB134V, value is the negative log10 of mol/L) was 4.34, the GI50 (cell line MDAMB175V, value is the negative log10 of mol/L) was 4.26 and the GI50 (cell line MDAMB361, value is the negative log10 of mol/L) was 4.77. It also gave a GI50 (cell line MDAMB415, value is the negative log10 of mol/L) of 4.46, a GI50 (cell line MDAMB436, value is the negative log10 of mol/L) of 4.28 and a GI50 (cell line MDAMB453, value is the negative log10 of mol/L) of 4.91. The GI50 (cell line MDAMB468, value is the negative log10 of mol/L) was 4.85, the GI50 (cell line SKBR3, value is the negative log10 of mol/L) was 4.51 and the GI50 (cell line SUM52PE, value is the negative log10 of mol/L) was 5.27. It also gave a GI50 (cell line SUM149PT, value is the negative log10 of mol/L) of 5.08, a GI50 (cell line SUM159PT, value is the negative log10 of mol/L) of 4.90 and a GI50 (cell line SUM185PE, value is the negative log10 of mol/L) of 5.53. For the same compound, the GI50 (cell line SUM225CWN, value is the negative log10 of mol/L) was 4.30, the GI50 (cell line SUM1315MO, value is the negative log10 of mol/L) was 5.40 and the GI50 (cell line T47D, value is the negative log10 of mol/L) was 4.82. It also gave a GI50 (cell line UACC812, value is the negative log10 of mol/L) of 4.42, a GI50 (cell line ZR75B, value is the negative log10 of mol/L) of 4.85 and a GI50 (cell line ZR751, value is the negative log10 of mol/L) of 4.76.

With `CC(=O)O[C@H]1C(=O)[C@@]2(C)[C@H]([C@H](OC(=O)c3ccccc3)[C@]3(O)C[C@H](OC(=O)[C@H](O)[C@@H](NC(=O)c4ccccc4)c4ccccc4)C(C)=C1C3(C)C)[C@]1(OC(C)=O)CO[C@@H]1C[C@@H]2O` [Paclitaxel] the GI50 (Homo sapiens, 600MPE cell line, censored GI50 values, read-out: GI50 (converted)) was 66.1 nM, the GI50 (Homo sapiens, AU565, AU565 cell line, censored GI50 values, read-out: GI50 (converted)) was 8.13 nM and the GI50 (Homo sapiens, AU565, cell line AU565, read-out: GI50 (converted)) was 8.13 nM. It also gave a GI50 (Homo sapiens, BT-474, BT474 cell line, censored GI50 values, read-out: GI50 (converted)) of 10.2 nM, a GI50 (Homo sapiens, BT-474, cell line BT474, read-out: GI50 (converted)) of 10.2 nM and a GI50 (Homo sapiens, BT-483, BT483 cell line, censored GI50 values, read-out: GI50 (converted)) of 34.7 nM. It also gave a GI50 (Homo sapiens, BT-483, cell line BT483, read-out: GI50 (converted)) of 34.7 nM, a GI50 (Homo sapiens, CAMA-1, CAMA1 cell line, censored GI50 values, read-out: GI50 (converted)) of 11.2 nM and a GI50 (Homo sapiens, CAMA-1, cell line CAMA1, read-out: GI50 (converted)) of 11.2 nM. It also gave a GI50 (Homo sapiens, HCC38, cell line HCC38, read-out: GI50 (converted)) of 7.41 nM, a GI50 (Homo sapiens, HCC70, cell line HCC70, read-out: GI50 (converted)) of 8.13 nM and a GI50 (Homo sapiens, HCC202, cell line HCC202, read-out: GI50 (converted)) of 7.94 nM. For the same compound, the GI50 (Homo sapiens, HCC1143, HCC1143 cell line, censored GI50 values, read-out: GI50 (converted)) was 17 nM, the GI50 (Homo sapiens, HCC1143, cell line HCC1143, read-out: GI50 (converted)) was 17 nM and the GI50 (Homo sapiens, HCC1187, HCC1187 cell line, censored GI50 values, read-out: GI50 (converted)) was 8.91 nM. The GI50 (Homo sapiens, HCC1187, cell line HCC1187, read-out: GI50 (converted)) was 8.91 nM, the GI50 (Homo sapiens, HCC1395, HCC1395 cell line, censored GI50 values, read-out: GI50 (converted)) was 15.8 nM and the GI50 (Homo sapiens, HCC1395, cell line HCC1395, read-out: GI50 (converted)) was 15.8 nM. It also gave a GI50 (Homo sapiens, HCC1419, HCC1419 cell line, censored GI50 values, read-out: GI50 (converted)) of 692 nM, a GI50 (Homo sapiens, HCC1419, cell line HCC1419, read-out: GI50 (converted)) of 692 nM and a GI50 (Homo sapiens, HCC1428, HCC1428 cell line, censored GI50 values, read-out: GI50 (converted)) of 16600 nM. For the same compound, the GI50 (Homo sapiens, HCC1428, cell line HCC1428, read-out: GI50 (converted)) was 16600 nM, the GI50 (Homo sapiens, HCC1500, HCC1500 cell line, censored GI50 values, read-out: GI50 (converted)) was 7.94 nM and the GI50 (Homo sapiens, HCC1500, cell line HCC1500, read-out: GI50 (converted)) was 7.94 nM. It also gave a GI50 (Homo sapiens, HCC1806, HCC1806 cell line, censored GI50 values, read-out: GI50 (converted)) of 8.71 nM, a GI50 (Homo sapiens, HCC1806, cell line HCC1806, read-out: GI50 (converted)) of 8.71 nM and a GI50 (Homo sapiens, HCC1954, HCC1954 cell line, censored GI50 values, read-out: GI50 (converted)) of 7.08 nM. It also gave a GI50 (Homo sapiens, HCC1954, cell line HCC1954, read-out: GI50 (converted)) of 7.08 nM, a GI50 (Homo sapiens, MCF7, cell line MCF7, read-out: GI50 (converted)) of 16.2 nM and a GI50 (Homo sapiens, MDA-MB-231, cell line MDAMB231, read-out: GI50 (converted)) of 5.25 nM. For the same compound, the GI50 (Homo sapiens, MDA-MB-361, cell line MDAMB361, read-out: GI50 (converted)) was 13.2 nM, the GI50 (Homo sapiens, MDA-MB-415, cell line MDAMB415, read-out: GI50 (converted)) was 5.25 nM and the GI50 (Homo sapiens, MDA-MB-436, cell line MDAMB436, read-out: GI50 (converted)) was 42.7 nM. It also gave a GI50 (Homo sapiens, MDA-MB-453, cell line MDAMB453, read-out: GI50 (converted)) of 10.2 nM, a GI50 (Homo sapiens, MDA-MB-468, cell line MDAMB468, read-out: GI50 (converted)) of 8.71 nM and a GI50 (Homo sapiens, SK-BR-3, cell line SKBR3, read-out: GI50 (converted)) of 11.2 nM. It also gave a GI50 (Homo sapiens, SUM52PE, cell line SUM52PE, read-out: GI50 (converted)) of 4.9 nM, a GI50 (Homo sapiens, SUM149PT, cell line SUM149PT, read-out: GI50 (converted)) of 9.33 nM and a GI50 (Homo sapiens, SUM185PE, cell line SUM185PE, read-out: GI50 (converted)) of 24 nM. For the same compound, the GI50 (Homo sapiens, SUM-159-PT, cell line SUM159PT, read-out: GI50 (converted)) was 15.1 nM, the GI50 (Homo sapiens, UACC-812, cell line UACC812, read-out: GI50 (converted)) was 9.12 nM and the GI50 (Homo sapiens, UACC-893, cell line UACC893, read-out: GI50 (converted)) was 11.7 nM. For the same compound, the GI50 (Homo sapiens, ZR-75-1, cell line ZR751, read-out: GI50 (converted)) was 27.5 nM, the GI50 (Homo sapiens, ZR-75-30, cell line ZR7530, read-out: GI50 (converted)) was 21.9 nM and the GI50 (Homo sapiens, ZR-75B, cell line ZR75B, read-out: GI50 (converted)) was 7.94 nM. It also gave a GI50 (Homo sapiens, cell line 600MPE, read-out: GI50 (converted)) of 66.1 nM, a GI50 (Homo sapiens, cell line HCC2185, read-out: GI50 (converted)) of 7.24 nM and a GI50 (Homo sapiens, cell line HCC3153, read-out: GI50 (converted)) of 20 nM. For the same compound, the GI50 (Homo sapiens, cell line LY2, read-out: GI50 (converted)) was 10.5 nM, the GI50 (Homo sapiens, cell line MDAMB134V, read-out: GI50 (converted)) was 10 nM and the GI50 (Homo sapiens, cell line MDAMB175V, read-out: GI50 (converted)) was 19.5 nM. The GI50 (Homo sapiens, cell line SUM1315MO, read-out: GI50 (converted)) was 6.17 nM.
